Measurements: the NIST ThermoML archive (doi:10.1016/j.jct.2015.08.014)
± gives the expanded uncertainty stated by the source.

Test: xn = mol fraction of the nth substance listed
Conditions: 100 kPa, Liquid; for electrical conductivity: Alternating current cell with electrodes; for mass density: Vibrating tube method; for viscosity: Capillary tube (Ostwald / Ubbelohde) method

CCCC[N+]1(C)CCCC1.N#CN=C=[N-] [1-butyl-1-methylpyrrolidinium dicyanamide] + O=C1CCCO1
electrical conductivity (293.15 K, Frequency=0.00652174 MHz, x1 = 0.1449): 2.31 ± 0.024 S/m | electrical conductivity (293.15 K, Frequency=0.00652174 MHz, x1 = 0.1859): 2.45 ± 0.025 S/m | electrical conductivity (293.15 K, Frequency=0.00652174 MHz, x1 = 0.2493): 2.37 ± 0.024 S/m | electrical conductivity (293.15 K, Frequency=0.00652174 MHz, x1 = 0.3029): 2.29 ± 0.023 S/m | electrical conductivity (293.15 K, Frequency=0.00652174 MHz, x1 = 0.3845): 2.116 ± 0.021 S/m | electrical conductivity (293.15 K, Frequency=0.00652174 MHz, x1 = 0.4985): 1.84 ± 0.019 S/m | electrical conductivity (293.15 K, Frequency=0.00652174 MHz, x1 = 0.6954): 1.46 ± 0.015 S/m | electrical conductivity (293.15 K, Frequency=0.00652174 MHz, x1 = 0.9013): 1.19 ± 0.012 S/m | electrical conductivity (293.15 K, Frequency=0.00652174 MHz, x1 = 1): 1.123 ± 0.011 S/m | electrical conductivity (293.15 K, Frequency=0.00694444 MHz, x1 = 0.0463): 1.37 ± 0.024 S/m | electrical conductivity (293.15 K, Frequency=0.00694444 MHz, x1 = 0.0987): 2.05 ± 0.025 S/m | electrical conductivity (293.15 K, Frequency=0.00694444 MHz, x1 = 0.1449): 2.31 ± 0.024 S/m | electrical conductivity (293.15 K, Frequency=0.00694444 MHz, x1 = 0.1859): 2.45 ± 0.025 S/m | electrical conductivity (293.15 K, Frequency=0.00694444 MHz, x1 = 0.2493): 2.37 ± 0.024 S/m | electrical conductivity (293.15 K, Frequency=0.00694444 MHz, x1 = 0.3029): 2.29 ± 0.023 S/m | electrical conductivity (293.15 K, Frequency=0.00694444 MHz, x1 = 0.3845): 2.116 ± 0.021 S/m | electrical conductivity (293.15 K, Frequency=0.00694444 MHz, x1 = 0.4985): 1.84 ± 0.019 S/m | electrical conductivity (293.15 K, Frequency=0.00694444 MHz, x1 = 0.6954): 1.46 ± 0.015 S/m | electrical conductivity (293.15 K, Frequency=0.00694444 MHz, x1 = 0.9013): 1.19 ± 0.012 S/m | electrical conductivity (293.15 K, Frequency=0.00694444 MHz, x1 = 1): 1.123 ± 0.011 S/m | electrical conductivity (293.15 K, Frequency=0.0075 MHz, x1 = 0.0463): 1.37 ± 0.024 S/m | electrical conductivity (293.15 K, Frequency=0.0075 MHz, x1 = 0.0987): 2.05 ± 0.025 S/m | electrical conductivity (293.15 K, Frequency=0.0075 MHz, x1 = 0.1449): 2.31 ± 0.024 S/m | electrical conductivity (293.15 K, Frequency=0.0075 MHz, x1 = 0.1859): 2.45 ± 0.025 S/m | electrical conductivity (293.15 K, Frequency=0.0075 MHz, x1 = 0.2493): 2.37 ± 0.024 S/m | electrical conductivity (293.15 K, Frequency=0.0075 MHz, x1 = 0.3029): 2.29 ± 0.023 S/m | electrical conductivity (293.15 K, Frequency=0.0075 MHz, x1 = 0.3845): 2.116 ± 0.021 S/m | electrical conductivity (293.15 K, Frequency=0.0075 MHz, x1 = 0.4985): 1.84 ± 0.019 S/m | electrical conductivity (293.15 K, Frequency=0.0075 MHz, x1 = 0.6954): 1.46 ± 0.015 S/m | electrical conductivity (293.15 K, Frequency=0.0075 MHz, x1 = 0.9013): 1.19 ± 0.012 S/m | electrical conductivity (293.15 K, Frequency=0.0075 MHz, x1 = 1): 1.123 ± 0.011 S/m | electrical conductivity (293.15 K, Frequency=0.008 MHz, x1 = 0.0463): 1.37 ± 0.024 S/m | electrical conductivity (293.15 K, Frequency=0.008 MHz, x1 = 0.0987): 2.05 ± 0.025 S/m | electrical conductivity (293.15 K, Frequency=0.008 MHz, x1 = 0.1449): 2.31 ± 0.024 S/m | electrical conductivity (293.15 K, Frequency=0.008 MHz, x1 = 0.1859): 2.45 ± 0.025 S/m | electrical conductivity (293.15 K, Frequency=0.008 MHz, x1 = 0.2493): 2.37 ± 0.024 S/m | electrical conductivity (293.15 K, Frequency=0.008 MHz, x1 = 0.3029): 2.29 ± 0.023 S/m | electrical conductivity (293.15 K, Frequency=0.008 MHz, x1 = 0.3845): 2.116 ± 0.021 S/m | electrical conductivity (293.15 K, Frequency=0.008 MHz, x1 = 0.4985): 1.84 ± 0.019 S/m | electrical conductivity (293.15 K, Frequency=0.008 MHz, x1 = 0.6954): 1.46 ± 0.015 S/m | electrical conductivity (293.15 K, Frequency=0.008 MHz, x1 = 0.9013): 1.19 ± 0.012 S/m | electrical conductivity (293.15 K, Frequency=0.008 MHz, x1 = 1): 1.123 ± 0.011 S/m | electrical conductivity (293.15 K, Frequency=0.00857143 MHz, x1 = 0.0463): 1.37 ± 0.024 S/m | electrical conductivity (293.15 K, Frequency=0.00857143 MHz, x1 = 0.0987): 2.05 ± 0.025 S/m | electrical conductivity (293.15 K, Frequency=0.00857143 MHz, x1 = 0.1449): 2.31 ± 0.024 S/m | electrical conductivity (293.15 K, Frequency=0.00857143 MHz, x1 = 0.1859): 2.45 ± 0.025 S/m | electrical conductivity (293.15 K, Frequency=0.00857143 MHz, x1 = 0.2493): 2.38 ± 0.024 S/m | electrical conductivity (293.15 K, Frequency=0.00857143 MHz, x1 = 0.3029): 2.3 ± 0.023 S/m | electrical conductivity (293.15 K, Frequency=0.00857143 MHz, x1 = 0.3845): 2.12 ± 0.022 S/m | electrical conductivity (293.15 K, Frequency=0.00857143 MHz, x1 = 0.4985): 1.84 ± 0.019 S/m | electrical conductivity (293.15 K, Frequency=0.00857143 MHz, x1 = 0.6954): 1.46 ± 0.015 S/m | electrical conductivity (293.15 K, Frequency=0.00857143 MHz, x1 = 0.9013): 1.19 ± 0.012 S/m | electrical conductivity (293.15 K, Frequency=0.00857143 MHz, x1 = 1): 1.123 ± 0.011 S/m | electrical conductivity (293.15 K, Frequency=0.00892857 MHz, x1 = 0.0463): 1.37 ± 0.024 S/m | electrical conductivity (293.15 K, Frequency=0.00892857 MHz, x1 = 0.0987): 2.05 ± 0.025 S/m | electrical conductivity (293.15 K, Frequency=0.00892857 MHz, x1 = 0.1449): 2.31 ± 0.024 S/m | electrical conductivity (293.15 K, Frequency=0.00892857 MHz, x1 = 0.1859): 2.45 ± 0.025 S/m | electrical conductivity (293.15 K, Frequency=0.00892857 MHz, x1 = 0.2493): 2.38 ± 0.024 S/m | electrical conductivity (293.15 K, Frequency=0.00892857 MHz, x1 = 0.3029): 2.3 ± 0.023 S/m | electrical conductivity (293.15 K, Frequency=0.00892857 MHz, x1 = 0.3845): 2.12 ± 0.022 S/m | electrical conductivity (293.15 K, Frequency=0.00892857 MHz, x1 = 0.4985): 1.84 ± 0.019 S/m | electrical conductivity (293.15 K, Frequency=0.00892857 MHz, x1 = 0.6954): 1.46 ± 0.015 S/m | electrical conductivity (293.15 K, Frequency=0.00892857 MHz, x1 = 0.9013): 1.19 ± 0.012 S/m | electrical conductivity (293.15 K, Frequency=0.00892857 MHz, x1 = 1): 1.124 ± 0.011 S/m | electrical conductivity (293.15 K, Frequency=0.00961538 MHz, x1 = 0.0463): 1.37 ± 0.024 S/m | electrical conductivity (293.15 K, Frequency=0.00961538 MHz, x1 = 0.0987): 2.05 ± 0.025 S/m | electrical conductivity (293.15 K, Frequency=0.00961538 MHz, x1 = 0.1449): 2.31 ± 0.024 S/m | electrical conductivity (293.15 K, Frequency=0.00961538 MHz, x1 = 0.1859): 2.45 ± 0.025 S/m | electrical conductivity (293.15 K, Frequency=0.00961538 MHz, x1 = 0.2493): 2.38 ± 0.024 S/m | electrical conductivity (293.15 K, Frequency=0.00961538 MHz, x1 = 0.3029): 2.3 ± 0.023 S/m | electrical conductivity (293.15 K, Frequency=0.00961538 MHz, x1 = 0.3845): 2.12 ± 0.022 S/m | electrical conductivity (293.15 K, Frequency=0.00961538 MHz, x1 = 0.4985): 1.84 ± 0.019 S/m | electrical conductivity (293.15 K, Frequency=0.00961538 MHz, x1 = 0.6954): 1.46 ± 0.015 S/m | electrical conductivity (293.15 K, Frequency=0.00961538 MHz, x1 = 0.9013): 1.19 ± 0.012 S/m | electrical conductivity (293.15 K, Frequency=0.00961538 MHz, x1 = 1): 1.124 ± 0.011 S/m | electrical conductivity (293.15 K, Frequency=0.01 MHz, x1 = 0.0463): 1.37 ± 0.024 S/m | electrical conductivity (293.15 K, Frequency=0.01 MHz, x1 = 0.0987): 2.05 ± 0.025 S/m | electrical conductivity (293.15 K, Frequency=0.01 MHz, x1 = 0.1449): 2.31 ± 0.024 S/m | electrical conductivity (293.15 K, Frequency=0.01 MHz, x1 = 0.1859): 2.45 ± 0.025 S/m | electrical conductivity (293.15 K, Frequency=0.01 MHz, x1 = 0.2493): 2.38 ± 0.024 S/m | electrical conductivity (293.15 K, Frequency=0.01 MHz, x1 = 0.3029): 2.3 ± 0.023 S/m | electrical conductivity (293.15 K, Frequency=0.01 MHz, x1 = 0.3845): 2.12 ± 0.022 S/m | electrical conductivity (293.15 K, Frequency=0.01 MHz, x1 = 0.4985): 1.84 ± 0.019 S/m | electrical conductivity (293.15 K, Frequency=0.01 MHz, x1 = 0.6954): 1.46 ± 0.015 S/m | electrical conductivity (293.15 K, Frequency=0.01 MHz, x1 = 0.9013): 1.19 ± 0.012 S/m | electrical conductivity (293.15 K, Frequency=0.01 MHz, x1 = 1): 1.124 ± 0.011 S/m | mass density (293.15 K, x1 = 0.0987): 1107.56 ± 8.9 kg/m3 | mass density (293.15 K, x1 = 0.1859): 1091.31 ± 8.7 kg/m3 | mass density (293.15 K, x1 = 0.3029): 1073.37 ± 8.6 kg/m3 | mass density (293.15 K, x1 = 0.4985): 1050.78 ± 8.4 kg/m3 | mass density (293.15 K, x1 = 0.6954): 1034.23 ± 8.3 kg/m3 | mass density (293.15 K, x1 = 0.9013): 1021.32 ± 8.2 kg/m3 | mass density (293.15 K, x1 = 1): 1016.28 ± 8.2 kg/m3 | electrical conductivity (298.15 K, x1 = 0.0463): 1.47 ± 0.026 S/m | electrical conductivity (298.15 K, x1 = 0.0987): 2.21 ± 0.027 S/m | electrical conductivity (298.15 K, x1 = 0.1449): 2.51 ± 0.026 S/m | electrical conductivity (298.15 K, x1 = 0.1859): 2.67 ± 0.027 S/m | electrical conductivity (298.15 K, x1 = 0.2493): 2.613 ± 0.026 S/m | electrical conductivity (298.15 K, x1 = 0.3029): 2.54 ± 0.026 S/m | electrical conductivity (298.15 K, x1 = 0.3845): 2.36 ± 0.024 S/m | electrical conductivity (298.15 K, x1 = 0.4985): 2.08 ± 0.021 S/m | electrical conductivity (298.15 K, x1 = 0.6954): 1.68 ± 0.017 S/m | electrical conductivity (298.15 K, x1 = 0.9013): 1.39 ± 0.014 S/m | electrical conductivity (298.15 K, x1 = 1): 1.317 ± 0.013 S/m | viscosity (298.15 K, x1 = 0.0987): 2.8 ± 0.06 mPa·s | viscosity (298.15 K, x1 = 0.1859): 4.02 ± 0.09 mPa·s | viscosity (298.15 K, x1 = 0.3029): 6.19 ± 0.14 mPa·s
